# According to US20230137491A1, “PEPTIDES AND USES THEREOF” (SINTICA BIOTECH SOCIETÀ A RESPONSABILITÀ LIMITATA …, priority 2020, published 2023):
# Non-standard residues stand in square brackets, D forms with d.
# How the values were obtained:
# [1] = tested on: melanoma cell lines (WM115, WM266-4, SKmel28, WM793B, 1205Lu); assay: MTT assay in melanoma cell lines; format: cell-based, human; conditions: for proliferation (MTT assay) with NSAID: WM115, WM266-4 and SKMEL28, increasing concentrations, 48 hrs
# Protocol: 5×10^3 cells/well were seeded in 96-well culture plates. At different time points, cells were incubated with 0.5% MTT (3-(4,5-dimethylthiazol-2-yl)-2,5-diphenyltetrazolium bromide) for 4 h at 37° C. and then dissolved with 100 μl Isopropanol with 0.04N HCl. The plate was read at 560 nm with a reference filter of 650 nm. Results are expressed as viability percentage, as compared to control.
# Five melanoma cell lines were used for testing the efficacy of XYZ or its non-PEGylated peptide component: WM115 and WM266-4, which are respectively the primary and metastatic melanoma derived from the same patient and expressing high levels of CD271, and SKme128, a metastatic melanoma cell line expressing low levels of CD271, WM793B, a primary melanoma, and 1205Lu derived from lung metastatic melanoma. The viability of the cell culture is assessed by MTT conversion. MTT solution is applied to the plates and placed into a cell culture incubator for 4 hours. The blue formazan metabolite produced by viable cells is then extracted into isopropanol and absorbance is measured at 570 nm using a spectrophotometer.
# [2] = tested on: CD271 expression in melanoma cell lines; assay: CD271 protein expression by Western blotting and flow cytometry; format: cell-based, human; conditions: WM115, WM266-4 and SKMEL28, 1 to 2.5 mM, 48 h treatment
# Protocol: FIG. 7. Chemotherapy up-regulates CD271 in primary and metastatic melanoma cell lines. (A) A real-time PCR using primers for intra- and extracellular CD271 receptor was performed on RNA extracts from three melanoma cell lines after treatment with carmustine (BCNU), cisplatin, dacarbazine (DTIC) or diluent. (B) Protein extracts from the three melanoma cell lines treated with different doses of cisplatin, carmustine, dacarbazine or diluent were separated on polyacrylamide gel and transferred onto nitrocellulose membranes. (C) Melanoma cell lines were treated with the chemotherapy or the diluent (see above) stained with anti CD271 mAb and analysed by flow cytometry.
# FIG. 13. Non-steroid anti-inflammatory drugs (NSAID) enhance CD271 levels in melanoma cell lines. Three melanoma cell lines were treated with increasing doses of ketoprofen (A) or ibuprofen (B) and the percentage of CD271 positive cells was measured by flow cytometry.
# Melanoma cell lines were treated with the chemotherapy or the diluent for 48 h, then were harvested and incubated with anti CD271 antibody (1:100 in PBS, Lab Vision Corporation, Thermo Fisher Scientific, Fremont, Calif., USA) for 20 min at 4° C. Cells were labeled with secondary antibody Alexa Fluor anti-mouse 488 (1:50, Thermo Fisher Scientific) for 20 min at 4° C. and analyzed with Epics XL flow cytometer (Beckman Coulter). […]
Molecule,proliferation (MTT assay) with NSAID [1],"CD271 protein levels (percentage of CD271 positive cells, flow cytometry) [2]","cell proliferation (MTT assay) ([1]; five melanoma cell lines, 48 h and 96 h after treatment, no significant difference between PEGylated and non-PEGylated form)"
"CC(C)Cc1ccc(C(C)C(=O)O)cc1 (centres unmarked) [ibuprofen, reference compound]",dose-dependently decreases proliferation,increased CD271 protein levels,
"CC(C(=O)O)c1cccc(C(=O)c2ccccc2)c1 (centres unmarked) [ketoprofen, reference compound]",dose-dependently decreases proliferation,increased CD271 protein levels,
Ac-[dM][dL]G[dI][dI][dA]G[dK][dN][dS]G-NH2 [non-PEGylated peptide],,,reduce cell proliferation
